For data set [1], the system named is Mus musculus. Briefly: Anti-addiction activity in naloxone-induced withdrawal symptoms in morphine-dependent mouse model assessed as inhibition of naloxone-induced body weight loss at 50 mg/kg, ip administered 60 mins prior to naloxone injection and measured after 2 hrs of naloxone injection. It counts as functional, organism-based. As to conditions: time 3.0 hrs.

The next data set concerns the target D(3) dopamine receptor (Homo sapiens, UniProt P35462). Briefly: Displacement of [3H]spiperone from human D3 receptor transfected in HEK293 cell membrane measured after 50 mins by competitive radioligand binding analysis. The format is cell membranes. On the technique in general: Displacement assays read how much labelled ligand stays bound in the presence of the test substance.

In data set [2] the test system is Mus musculus. Briefly: Anti-addiction activity in naloxone-induced withdrawal symptoms in morphine-dependent mouse model assessed as reduction in amount of diarrhea at 50 mg/kg, ip administered 60 mins prior to naloxone injection and measured for 30 mins after naloxone injection. It counts as functional, organism-based. As to conditions: time 90.0 min.
In a further data set the target is D(2) dopamine receptor (Homo sapiens, UniProt P14416). Briefly: Displacement of [3H]spiperone from human D2 receptor transfected in HEK293 cell membrane measured after 50 mins by competitive radioligand binding analysis. The format is cell membranes.
D(2) dopamine receptor, sequence (P14416 whole entry): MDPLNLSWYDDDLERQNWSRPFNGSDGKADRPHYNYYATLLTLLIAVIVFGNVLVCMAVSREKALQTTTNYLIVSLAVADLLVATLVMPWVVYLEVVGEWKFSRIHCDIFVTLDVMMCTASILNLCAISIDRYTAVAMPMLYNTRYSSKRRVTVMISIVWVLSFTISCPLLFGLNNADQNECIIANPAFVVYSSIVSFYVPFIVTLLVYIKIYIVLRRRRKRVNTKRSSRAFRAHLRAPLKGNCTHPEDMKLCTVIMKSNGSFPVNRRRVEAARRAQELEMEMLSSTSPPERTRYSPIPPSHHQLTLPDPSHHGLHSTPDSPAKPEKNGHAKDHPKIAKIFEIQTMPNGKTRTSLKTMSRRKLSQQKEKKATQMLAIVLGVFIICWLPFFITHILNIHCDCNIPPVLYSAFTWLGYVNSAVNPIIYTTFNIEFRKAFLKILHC
The subject of data set [3] is Mus musculus. Briefly: Anti-addiction activity in naloxone-induced withdrawal symptoms in morphine-dependent mouse model assessed as inhibition of naloxone-induced jumping response at 50 mg/kg, ip administered 60 mins prior to naloxone injection and measured for 30 mins after naloxone injection. The format is functional, organism-based. As to conditions: time 90.0 min.

The species named for a further data set is Homo sapiens. Description: Selectivity ratio of Ki for human D2 receptor transfected in HEK293 cell membrane to Ki for human D3 receptor transfected in HEK293 cell membrane. The format is cell-based.
Data set [4] in a line: Toxicity in naloxone-induced withdrawal symptoms in morphine-dependent mouse model assessed as convulsions at 50 mg/kg, ip administered 60 mins prior to naloxone injection. As to conditions: in vivo, 1 h. It counts as organism-based.
A short description of data set [5]: Toxicity in naloxone-induced withdrawal symptoms in morphine-dependent mouse model assessed as slow crawling at 50 mg/kg, ip administered 60 mins prior to naloxone injection. The format is organism-based. As to conditions: in vivo, 1 h.
Data set [6] in a line: Toxicity in naloxone-induced withdrawal symptoms in morphine-dependent mouse model assessed as inability to bounce at 50 mg/kg, ip administered 60 mins prior to naloxone injection. As to conditions: in vivo, 1 h. It counts as organism-based.
The subject of data set [7] is Mus musculus. Description: Anti-addiction activity in naloxone-induced withdrawal symptoms in morphine-dependent mouse model assessed as reduction in diarrhea frequency at 50 mg/kg, ip administered 60 mins prior to naloxone injection and measured for 30 mins after naloxone injection. It counts as functional, organism-based. As to conditions: time 90.0 min.

Activity calls are given as the source filed them. The calls are words filed in the database; no cut-off is given here.

D(3) dopamine receptor, sequence (P35462 whole entry): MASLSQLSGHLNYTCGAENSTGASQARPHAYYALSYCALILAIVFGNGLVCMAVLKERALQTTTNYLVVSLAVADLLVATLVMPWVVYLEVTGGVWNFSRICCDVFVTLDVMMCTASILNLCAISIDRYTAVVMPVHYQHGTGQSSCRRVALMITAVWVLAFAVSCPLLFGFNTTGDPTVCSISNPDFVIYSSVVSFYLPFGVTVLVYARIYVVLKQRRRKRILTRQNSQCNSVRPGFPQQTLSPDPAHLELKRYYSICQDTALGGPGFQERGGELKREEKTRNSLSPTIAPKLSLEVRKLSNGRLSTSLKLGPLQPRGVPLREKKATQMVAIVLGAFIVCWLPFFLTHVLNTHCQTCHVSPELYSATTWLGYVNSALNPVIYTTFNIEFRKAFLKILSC

Usually Ki stands for a measure of affinity in units of concentration, obtained from inhibition or displacement. High values mean weaker binding, low ones tighter binding. For the compound `COc1ccc(C(=O)NCCCCN2CCO[C@@H]3c4cc(OC)ccc4OC[C@H]32)cc1` (racemic), the outcome in the data set with Mus musculus [1], in the data set on Mus musculus [2] and with Mus musculus [3] was Active. Also, the Ki at D(3) dopamine receptor was 1.08 nM; on D(2) dopamine receptor it was 697 nM. The Ratio Ki in the data set filed under Homo sapiens was 645.

Turning to `COc1ccc2c(c1)[C@H]1OCCN(CCCCNC(=O)c3ccc(-c4ccccc4)cc3)[C@@H]1CO2` (racemic), the outcome with Mus musculus [1] was Active. In addition, the inhibitory constant (Ki) at D(3) dopamine receptor was 18.4 nM; on D(2) dopamine receptor, 1060 nM. For the same compound, the Ratio Ki in the data set filed under Homo sapiens amounted to 58.

Take `O=C(NCCCCN1CCO[C@@H]2c3ccccc3OC[C@H]21)c1cc2ccccc2[nH]1` (racemic): the outcome in the data set with Mus musculus [1] and with Mus musculus [3] was Active. Further, the inhibition constant (Ki) at D(3) dopamine receptor was 10.5 nM; on D(2) dopamine receptor, 785 nM. For the same compound, the Ratio Ki in the data set filed under Homo sapiens turned out to be 75.

Take `COc1ccc2c(c1)[C@H]1OCCN(CCCCNC(=O)c3cccs3)[C@@H]1CO2` (racemic): the Ki on D(3) dopamine receptor was 6.58 nM; at D(2) dopamine receptor it was 803 nM. Besides, the Activity result in data set [4], in data set [5] and in [6] was “Toxic” in each case. Moreover, the Ratio Ki in the data set listed under Homo sapiens worked out at 122.

With `O=C(NCCCCN1CCO[C@@H]2c3ccccc3OC[C@H]21)c1cccs1` (racemic), the outcome in the data set with Mus musculus [1] and in the data set on Mus musculus [7] was Active. Besides, the results for the inhibitory constant (Ki) on D(3) dopamine receptor and on D(2) dopamine receptor were 18.5 nM and 417 nM, respectively. In addition, the Ratio Ki in the data set filed under Homo sapiens stood at 23.

With `COc1ccc(C(=O)NCCCCN2CCO[C@@H]3c4ccccc4OC[C@H]32)cc1` (racemic), the outcome with Mus musculus [1], in the data set with Mus musculus [3] and in the data set on Mus musculus [7] was Active. The results for the Ki at D(3) dopamine receptor and at D(2) dopamine receptor were 7.5 nM and 568 nM, respectively. Besides, the Ratio Ki in the data set filed under Homo sapiens is 76.

As for `COc1ccc2c(c1)[C@H]1OCCN(CCCCNC(=O)c3cccnc3)[C@@H]1CO2` (racemic), the Ki at D(3) dopamine receptor was 9.16 nM; on D(2) dopamine receptor it was 744 nM. Moreover, the Activity entry in data set [4], in data set [5] and in data set [6] was “Toxic” throughout. Moreover, the Ratio Ki in the data set listed under Homo sapiens was found to be 81.

Take `O=C(NCCCCN1CCO[C@@H]2c3ccccc3OC[C@H]21)c1cccc2ccccc12` (racemic): the result in the data set with Mus musculus [1] and with Mus musculus [3] was Active. For the same compound, the Ki on D(3) dopamine receptor is 15.8 nM; on D(2) dopamine receptor, 563 nM. For the same compound, the Ratio Ki in the data set filed under Homo sapiens was determined as 36.

For `COc1ccc2c(c1)[C@H]1OCCN(CCCCNC(=O)c3ccc(Br)cc3)[C@@H]1CO2` (racemic), the outcome in the data set with Mus musculus [1] was Active. The Ki on D(3) dopamine receptor came to 8.6 nM; on D(2) dopamine receptor, 958 nM. In addition, in the data set listed under Homo sapiens, the Ratio Ki was 111.

Take `COc1ccc2c(c1)[C@H]1OCCN(CCCCNC(=O)C3CCCCC3)[C@@H]1CO2` (racemic): the result in the data set with Mus musculus [1], in the data set with Mus musculus [2] and in the data set on Mus musculus [3] was Active. The inhibitory constant (Ki) on D(3) dopamine receptor turned out to be 33.6 nM; on D(2) dopamine receptor, 688 nM. Besides, in the data set listed under Homo sapiens, the Ratio Ki is 21.

With `O=C(NCCCCN1CCO[C@@H]2c3ccccc3OC[C@H]21)c1ccc(Cl)cc1` (racemic), the outcome with Mus musculus [1] and with Mus musculus [2] was Active. Further, the inhibitory constant (Ki) worked out at 17.8 nM at D(3) dopamine receptor and 473 nM at D(2) dopamine receptor. In the data set filed under Homo sapiens, the Ratio Ki is 27.

For the compound `COc1ccc2c(c1)[C@H]1OCCN(CCCCNC(=O)c3cc4ccccc4[nH]3)[C@@H]1CO2` (racemic), the outcome in the data set on Mus musculus [1] and in the data set on Mus musculus [2] was Active. Besides, the Ki at D(3) dopamine receptor worked out at 0.97 nM; on D(2) dopamine receptor it was 732 nM. In the data set filed under Homo sapiens, the Ratio Ki turned out to be 755.

As to `COc1ccc2c(c1)[C@H]1OCCN(CCCCNC(=O)c3cccc4ccccc34)[C@@H]1CO2` (racemic), the result in the data set with Mus musculus [1] and in the data set with Mus musculus [2] was Active. The Ki came to 19.8 nM at D(3) dopamine receptor and 861 nM at D(2) dopamine receptor. Moreover, in the data set listed under Homo sapiens, the Ratio Ki amounted to 43.

Regarding `O=C(NCCCCN1CCO[C@@H]2c3ccccc3OC[C@H]21)c1ccc(Br)cc1` (racemic), the result in the data set with Mus musculus [1] was inactive. Further, the inhibition constant Ki on D(3) dopamine receptor worked out at 13.5 nM; at D(2) dopamine receptor, 897 nM. Besides, in the data set listed under Homo sapiens, the Ratio Ki came to 66.

For the compound `O=C(NCCCCN1CCO[C@@H]2c3ccccc3OC[C@H]21)c1ccc2ccccc2c1` (racemic), the result in the data set on Mus musculus [1] and with Mus musculus [2] was Active. The Ki on D(3) dopamine receptor is 13.7 nM; on D(2) dopamine receptor it was 723 nM. The Ratio Ki in the data set filed under Homo sapiens stood at 53.

In the case of `O=C(NCCCCN1CCO[C@@H]2c3ccccc3OC[C@H]21)c1ccc(-c2ccccc2)cc1` (racemic), the outcome in the data set on Mus musculus [1] and in the data set on Mus musculus [3] was Active. For the same compound, the figures for the Ki at D(3) dopamine receptor and at D(2) dopamine receptor were 43.8 nM and 1020 nM, respectively. Moreover, in the data set filed under Homo sapiens, the Ratio Ki turned out to be 23.

For `O=C(NCCCCN1CCO[C@@H]2c3ccccc3OC[C@H]21)c1ccc([N+](=O)[O-])cc1` (racemic), the outcome with Mus musculus [1], with Mus musculus [3] and with Mus musculus [7] was Active. Moreover, the figures for the inhibitory constant (Ki) at D(3) dopamine receptor and at D(2) dopamine receptor were 33.9 nM and 962 nM, respectively. Also, the Ratio Ki in the data set listed under Homo sapiens was determined as 28.

Turning to `O=C(NCCCCN1CCO[C@@H]2c3ccccc3OC[C@@H]21)c1cccs1` (racemic), the outcome with Mus musculus [1] was inactive. Further, the inhibition constant (Ki) on D(3) dopamine receptor is over 1000 nM.

With `O=C(NCCCCN1CCO[C@@H]2c3ccccc3OC[C@H]21)c1cccc(Cl)c1` (racemic), the result in the data set on Mus musculus [1] and in the data set with Mus musculus [7] was Active. The values for the Ki on D(3) dopamine receptor and at D(2) dopamine receptor were 23.6 nM and 663 nM, respectively. Moreover, in the data set listed under Homo sapiens, the Ratio Ki amounted to 28.

As to `COc1ccccc1C(=O)NCCCCN1CCO[C@@H]2c3ccccc3OC[C@H]21` (racemic), the values for the inhibitory constant (Ki) on D(3) dopamine receptor and at D(2) dopamine receptor were 12.9 nM and 863 nM, respectively. Further, the Ratio Ki in the data set filed under Homo sapiens worked out at 67.

As to `COc1ccc2c(c1)[C@H]1OCCN(CCCCNC(=O)c3ccccc3)[C@@H]1CO2` (racemic), the outcome in the data set with Mus musculus [1] and with Mus musculus [7] was Active. The inhibition constant (Ki) on D(3) dopamine receptor was found to be 13.8 nM; at D(2) dopamine receptor it was 568 nM. The Ratio Ki in the data set filed under Homo sapiens amounted to 41.

For `O=C(NCCCCN1CCO[C@@H]2c3ccccc3OC[C@H]21)c1ccccc1` (racemic), the result with Mus musculus [1] and in the data set on Mus musculus [3] was Active. The Ki at D(3) dopamine receptor came out at 72 nM; at D(2) dopamine receptor it was 776 nM. The Ratio Ki in the data set filed under Homo sapiens worked out at 11.

As for `O=C(NCCCCN1CCO[C@@H]2c3ccccc3OC[C@@H]21)c1ccc(-c2ccccc2)cc1` (racemic), in the data set on Mus musculus [1], the result was inactive. Also, at D(3) dopamine receptor, the Ki was over 1000 nM.

Take `COc1ccc2c(c1)[C@H]1OCCN(CCCCNC(=O)c3cccc(Cl)c3)[C@@H]1CO2` (racemic): the outcome in the data set with Mus musculus [1] was inactive. Also, the inhibitory constant (Ki) worked out at 26.6 nM at D(3) dopamine receptor and 785 nM on D(2) dopamine receptor. In the data set on Mus musculus [3], the outcome was Active. For the same compound, in the data set listed under Homo sapiens, the Ratio Ki amounted to 30.

As for `O=C(NCCCCN1CCO[C@@H]2c3ccccc3OC[C@H]21)C1CCCCC1` (racemic), the result in the data set on Mus musculus [1] and in the data set with Mus musculus [3] was Active. The figures for the Ki on D(3) dopamine receptor and at D(2) dopamine receptor were 63.8 nM and 728 nM, respectively. Further, in the data set filed under Homo sapiens, the Ratio Ki came out at 11.

Take `COc1ccc2c(c1)[C@H]1OCCN(CCCCNC(=O)c3ccc([N+](=O)[O-])cc3)[C@@H]1CO2` (racemic): the result with Mus musculus [1] and with Mus musculus [3] was Active. For the same compound, the Ki at D(3) dopamine receptor was found to be 13.9 nM; at D(2) dopamine receptor, 589 nM. Moreover, the Ratio Ki in the data set filed under Homo sapiens is 42.

`CCCN1CCO[C@@H]2c3cc(O)ccc3OC[C@H]21`: the results for the inhibition constant (Ki) at D(3) dopamine receptor and at D(2) dopamine receptor were 1.82 nM and 43 nM, respectively. Also, in the data set filed under Homo sapiens, the Ratio Ki stood at 23.

In the case of `COc1cc(C(=O)NCCCCN2CCO[C@@H]3c4ccccc4OC[C@H]32)cc(OC)c1OC` (racemic), in the data set on Mus musculus [1], the result was inactive. The Ki at D(3) dopamine receptor is 6.8 nM; at D(2) dopamine receptor, 708 nM. Moreover, the Ratio Ki in the data set listed under Homo sapiens was 104.

As to `COc1ccc2c(c1)[C@H]1OCCN(CCCCNC(=O)c3ccco3)[C@@H]1CO2` (racemic), the outcome in the data set with Mus musculus [1] was inactive. In addition, the Ki was 5.2 nM at D(3) dopamine receptor and 923 nM on D(2) dopamine receptor. For the same compound, in the data set on Mus musculus [3], the outcome was Active. Besides, the Ratio Ki in the data set filed under Homo sapiens worked out at 177.

With `COc1ccc2c(c1)[C@H]1OCCN(CCCCNC(=O)c3ccc4ccccc4c3)[C@@H]1CO2` (racemic), in the data set on Mus musculus [1], the result was Active. Further, the figures for the Ki at D(3) dopamine receptor and at D(2) dopamine receptor were 19.9 nM and 642 nM, respectively. Further, in the data set listed under Homo sapiens, the Ratio Ki came out at 32.

Regarding `O=C(NCCCCN1CCO[C@@H]2c3ccccc3OC[C@@H]21)c1ccc(Cl)cc1` (racemic), the result in the data set with Mus musculus [1] and with Mus musculus [7] was Active. The compound further gave an inhibition constant Ki on D(3) dopamine receptor of over 1000 nM.
